The values that follow come from paper PMC9540496 (Clinical Pharmacology and Therapeutics, 2022).

For series [1] the following is noted: cited from earlier work.
The nature of series [2]: Static perpetrator DDI risk assessment. The following applies: for Theoretical gut concentration (Igut): 200 mg/250 mL.
The nature of series [3]: Safety across the three phase I pharmacokinetic studies. Format: in vivo, human.
The test system of the next series is P‐gp. Briefly: Anticipated effect of abrocitinib on digoxin, not formally evaluated. Conditions: assuming complete P‐gp inhibition.
Series [4] is described as follows: Endogenous biomarkers NMN. Format: in vivo, human. The following applies: for Tmax: median (range).
A short description of series [5]: Phase I crossover DDI study: dabigatran etexilate. The format is in vivo, human.
Another series can be described thus: clinical. Conditions: both, human, plasma, oral, 500 mg.
Series [6] is described as follows: Phase I crossover DDI study: metformin. Conditions: metformin 500 mg alone; median (range).
Series [7] is described as follows: Phase I crossover DDI study: rosuvastatin. Format: in vivo, human.
The mark [8] stands for this setting: both, human, plasma, oral, 75 mg.
Where [9] appears, read: dabigatran etexilate 75 mg + abrocitinib 200 mg vs alone.
Where [10] appears, read: dabigatran etexilate 75 mg ± abrocitinib 200 mg single dose.
Where [11] appears, read: rosuvastatin 10 mg ± abrocitinib 200 mg QD.

Each structure is given as a SMILES string. Marks after values point to notes of the source that are not given here. A value given as a limit tells only on which side of the number the result lay.

With `CCCN(CCC)S(=O)(=O)c1ccc(C(=O)O)cc1` [probenecid], the “decrease in CLr of rosuvastatin or furosemide in the presence of probenecid” value in series [1] (OAT3 index inhibitor, approximate five‐fold) is listed as roughly 80%.

Regarding `CCCS(=O)(=O)N[C@H]1C[C@@H](N(C)c2ncnc3[nH]ccc23)C1` [abrocitinib, Abrocitinib], in series [2], the “absorption rate constant (ka)” value turned out to be 0.067 min⁻¹, the “fraction absorbed (fafg)” value amounted to 0.91 and the “Theoretical gut concentration (Igut)” value is 0.8 mg/mL. Also, the “Theoretical gut concentration (Igut)” value in series [2] (MW 323.4) came out at 2.47 mM. For the same compound, in [2] (cutoff for intestinal transporters, 200 mg dose), the “0.1 × molar dose/250 mL” value was determined as 247 µM. In series [2] (cutoff for systemic transporters, unbound steady-state Cmax), the “50 × Cmax,u” value came to 65 µM. Further, the “Theoretical liver inlet concentration (Iin,max,u)” value in series [2] (fu × (Cmax + ((fafg × ka × Dose/Qh)/B/P))) was 9.1 µM. Further, in series [3] (all three pharmacokinetic studies, abrocitinib 200 mg with probe drugs), the “serious or severe adverse events” value is on record as “No serious or severe adverse events”. In series [3] (co‐administered with a single oral dose of dabigatran etexilate, rosuvastatin, or metformin, healthy volunteers), the tolerability entry was “well‐tolerated”. Further, the “anticipated maximum increase in digoxin AUC” value in the series with P‐gp was no more than 30%.

Consider `C[C@H]1O[C@@H](O[C@H]2[C@@H](O)C[C@H](O[C@H]3[C@@H](O)C[C@H](O[C@H]4CC[C@@]5(C)[C@H](CC[C@@H]6[C@@H]5C[C@@H](O)[C@]5(C)[C@@H](C7=CC(=O)OC7)CC[C@]65O)C4)O[C@@H]3C)O[C@@H]2C)C[C@H](O)[C@@H]1O` [digoxin], for which the absolute bioavailability in series [1] was 75–78%.

Regarding `C=C[C@H]1C[N@@]2CC[C@H]1C[C@@H]2[C@@H](O)c1ccnc2ccc(OC)cc12` [quinidine], the “increase of dabigatran exposures” value in series [1] (P‐gp interaction, dabigatran labeling) is 50–60%.

With `CC(C)C(=O)O[C@H](CC(=O)[O-])C[N+](C)(C)C` [IBC, isobutyryl‐L‐carnitine], in series [4] (IBC), the “AUC24 ratio of abrocitinib + metformin vs. metformin alone AGm (90% CI)” value is reported as 0.95 (0.85–1.05) ^c. For the same compound, the “Cmax ratio of abrocitinib + metformin vs. metformin alone AGm (90% CI)” value in [4] (IBC) was 0.95 (0.85–1.06) ^c. Also, the AUC24 in [4] (IBC in plasma, metformin 500 mg alone, geometric mean (geometric %CV), N = 12) is reported as 1187 (56) ng•hour/mL. Moreover, the Cmax was 56.6 (55) ng/mL in series [4] (IBC, abrocitinib 200 mg + metformin 500 mg, geometric mean (geometric %CV)) and 59.7 (56) ng/mL in series [4] (IBC, metformin 500 mg alone, geometric mean (geometric %CV)). For the same compound, the Tmax in [4] (IBC, abrocitinib 200 mg + metformin 500 mg) is given as 14.0 (0.00–23.8) hour; in series [4] (IBC, metformin 500 mg alone) it was 16.0 (0.00–23.8) hour. Also, the “effect of abrocitinib co‐administration with metformin on AUC24 or Cmax” value in series [4] (IBC, compared with metformin alone) is reported as “did not alter”.

In general, half-life refers to the time in which the quantity being followed falls by half. High values mean slow decline, low ones rapid decline. For the compound `[H]/N=C(/N)c1ccc(NCc2nc3cc(C(=O)N(CCC(=O)O)c4ccccn4)ccc3n2C)cc1` [Dabigatran, dabigatran], the “increase of plasma exposure on co‐administration with abrocitinib” value in series [5] (abstract statement) is on record as ~ 50%. In [5] (setting [8]), this compound had a Cmax of 30.2 ng/mL and a half-life of 8.93 ± 2.28 h. In addition, in series [5] (setting [9]), the “increase of AUCinf on co‐administration with abrocitinib” value is on record as 53% and the “increase of Cmax on co‐administration with abrocitinib” value is given as 40%. Also, in [5] (setting [10]), the “AUCinf ratio of abrocitinib + substrate vs. substrate alone AGm (90% CI)” value was 1.53 (1.09–2.15) and the “Cmax ratio of abrocitinib + substrate vs. substrate alone AGm (90% CI)” value is given as 1.40 (0.92–2.13).

The AUC(0-inf) is the area under the concentration-time curve extrapolated to infinity. In “clinical”, `CN(C)C(=N)N=C(N)N` [Metformin, metformin] registered an AUC(0-inf) of 5200 ng·h/mL and a Cmax of 721 ng/mL. Besides, the Tmax in series [6] was 4.00 (1.00–4.00) hour.

For `CC(C)c1nc(N(C)S(C)(=O)=O)nc(-c2ccc(F)cc2)c1/C=C/[C@@H](O)C[C@@H](O)CC(=O)O` [Rosuvastatin, rosuvastatin], in [7] (90% CIs within acceptance range of 80–125%), the “plasma exposure and CLr on co‐administration with abrocitinib” value is reported as “unaffected”. The compound further displayed a total exposure AUC(0-inf) in series [7] (both, human, plasma, oral, 10 mg) of 57.6 ng·h/mL. The CL renal in [7] (both, human, urine and plasma, oral, 10 mg) was 243 mL/min. In series [7] (rosuvastatin 10 mg alone, geometric mean (geometric %CV)), the Cmax is on record as 5.38 (53) ng/mL. In series [7] (setting [11]), the “AUCinf ratio of abrocitinib + substrate vs. substrate alone AGm (90% CI)” value is given as 1.02 (0.93–1.12) ^c, the “CLr ratio of abrocitinib + substrate vs. substrate alone AGm (90% CI)” value was 0.91 (0.83–1.01) ^c and the “Cmax ratio of abrocitinib + substrate vs. substrate alone AGm (90% CI)” value is recorded as 0.99 (0.86–1.14) ^c. In [1] (ABCG2 (BCRP) polymorphism), the “increase of rosuvastatin AUC with ABCG2 421A/A vs. wild‐type” value was ~ 2 fold. Besides, the “parent drug recovered in urine” value in series [1] (after oral dosing) is listed as 10%.
